Results as given in US7803992B2, “Methods and compositions for expressing an herbicide-tolerant polynucleotide” (Pioneer Hi-Bred International, Inc., priority 2005, dated 2010).

Columns and labels:
[1] = tested on: parent elite stiff stalk inbred corn; assay: Postemergence herbicide application in greenhouse: fresh shoot weight and visual injury; format: in vivo
[2] = tested on: Heterozygous GAT-HRA corn; assay: as above; format: in vivo
[3] = tested on: GAT-HRA soybeans; assay: Postemergence herbicide treatment of soybeans in greenhouse, visual injury; format: in vivo, soybean; details: postemergence, glyphosate 8960, tribenuron-methyl 35, rimsulfuron 35 g/ha
Method: (§1) Young regenerated transgenic plants were sprayed with 1× glyphosate (1× rate of glyphosate is 1120 g/ha of glyphosate isopropylamine) to cull segregants. Four replications were performed for each treatment. Plants were then treated with various herbicides, including glyphosate and ALS-inhibitor herbicides.
(§2) Six soybean seeds from each variety to be assayed were planted 1 cm deep in 5.5 (13.97 cm) inch square plastic container of a synthetic growth medium. […] When possible, containers were thinned to two uniform plants. Non-transgenic lines were thinned to two uniform plants per container.
(§3) Results are expressed below in Table 11 as the mean of four replications.

[4] = tested on: Wild Type soybeans (Jack); assay: as above; format: in vivo, soybean; details: postemergence, glyphosate 8960, tribenuron-methyl 35, rimsulfuron 35 g/ha
Method: as §1, §2, §3

[5] = tested on: STS ® soybeans; assay: as above; format: in vivo, soybean
From the text: When possible, containers were thinned to two uniform plants.

[6] = tested on: GAT-HRA transgenic cotton plants; assay: Greenhouse over the top herbicide spray of cotton; format: in vivo, Gossypium hirsutum; details: glyphosate 1.5 lb acid equivalent per acre at 4-6 leaf stage; 14 days after application
From the text: (§4) Transformed cotton plants were rooted and then transferred to soil for further growth. Plants were then subjected to herbicide spray treatments in a greenhouse. […] Untransformed Coker 312 control plants were dead 2 weeks after glyphosate application. […] Plants transformed with both GAT and HRA were further subjected to an “over the top” application of the sulfonylurea herbicide rimsulfuron at a rate of 16 g active ingredient/hectare. […] In further experiments 32 g ai/ha rimsulfuron were applied to the cotton.

[7] = tested on: Untransformed Coker 312 cotton; assay: Greenhouse over the top herbicide spray of cotton; format: in vivo, Gossypium hirsutum; details: glyphosate 1.5 lb ae/acre, 2 weeks after application; rimsulfuron 16 g active ingredient/hectare without glyphosate
From the text: as §4

[8] = tested on: non-transformed GS3 embryos; assay: Glyphosate kill curve on culture media; format: cell-based, maize; details: about 40 days culture
Method: A glyphosate kill curve was established by testing non-transformed embryos response on media with different levels of glyphosate. GS3 embryos were isolated from an immature ear and placed onto media containing glyphosate at 0.0, 0.5, 1.0, and 2.0 mM. After about 40 days culture, the response of the embryos were observed and recorded. Similarly, infected GS3 embryos with the GAT construct were placed onto media containing glyphosate at 0.0, 0.5, 1.0, and 2.0 mM. After about 40 days culture, the response of the infected embryos were observed and recorded (FIG. 7).

[9] = tested on: Non-glyphosate resistant Conyza (Welgevallen-paraquat resistant); assay: Control of hairy fleabane by glyphosate, metsulfuron-methyl and two additives; format: in vivo, Conyza bonariensis; details: glyphosate on its own; 10-15 leaf stage
Method: This example included the same treatments as used in Example 11, except the treatments were carried out on a glyphosate sensitive biotype of Kleinskraalhans (Conyza bonariensis). […] In this example, however, ammonium sulfate-based adjuvant (ADD-UP®) preformed better than bispyribac-sodium (VELOCITY®) with the mixture.
• Biotype: Non-glyphosate resistant Conyza (Welgevallen-paraquat resistant) • Growth Stage: 10-15 leaf stage • Condtions: Cool and sunny • Volume rate: 200 L ha^−1 • glyphosate (ROUNDUP): 360 g a.i. L^−1

[10] = Zea mays, post-emergence, […], read-out: % Visual Injury

O=C(O)CNCP(=O)(O)O [Glyphosate, N-phosphonomethylglycine]
pest or weed control at 200 g/ha [1, 10]: 100% | Fresh Weight ([1]; postemergence, 200 g/ha (glyphosate 3472 g ae/ha, glufosinate ammonium 1870 g/ha), weighed 2 weeks after treatment, mean of four replications, untreated 76.4 g): 1.0 g | pest or weed control at 200 g/ha [2, 10]: 10% | Fresh Weight ([2]; postemergence, 200 g/ha (glyphosate 3472 g ae/ha, glufosinate ammonium 1870 g/ha), weighed 2 weeks after treatment, mean of four replications, untreated 98.8 g): 97.4 g | % Visual Injury ([3]; event 59, mean): 38% | % Visual Injury ([3]; event 59 line 21): 40% | % Visual Injury ([3]; event 59 line 28): 37% | % Visual Injury ([3]; event 60, mean): 15% | % Visual Injury ([3]; event 60 line 07): 19% | % Visual Injury ([3]; event 60 line 11): 11% | % Visual Injury ([3]; event 60 line 22): 11% | % Visual Injury ([3]; event 60 line 35): 9% | % Visual Injury ([3]; event 60 line 41): 13% | % Visual Injury ([3]; event 60 line 46): 20% | % Visual Injury ([3]; event 60 line 70): 9% | % Visual Injury ([3]; event 60 line 75): 14% | % Visual Injury ([3]; event 60 line 77): 19% | % Visual Injury ([3]; event 60 line 79): 18% | % Visual Injury ([3]; event 60 line 82): 20% | % Visual Injury ([3]; event 60 line 84): 22% | % Visual Injury ([3]; event 61, mean): 20% | % Visual Injury ([3]; event 61 line 02): 10% | % Visual Injury ([3]; event 61 line 02B): 10% | % Visual Injury ([3]; event 61 line 05): 11% | % Visual Injury ([3]; event 61 line 14): 10% | % Visual Injury ([3]; event 61 line 18): 10% | % Visual Injury ([3]; event 61 line 24): 60% | % Visual Injury ([3]; event 61 line 33): 84% | % Visual Injury ([3]; event 61 line 34): 23% | % Visual Injury ([3]; event 61 line 47): 15% | % Visual Injury ([3]; event 61 line 49): 9% | % Visual Injury ([3]; event 61 line 51): 10% | % Visual Injury ([3]; event 61 line 60): 16% | % Visual Injury ([3]; event 61 line 62): 6% | % Visual Injury ([3]; event 61 line 99): 10% | % Visual Injury ([3]; event 64, mean): 14% | % Visual Injury ([3]; event 64 line 41): 20% | % Visual Injury ([3]; event 64 line 47): 10% | % Visual Injury ([4]; Wild Type line 82): 100% | % Visual Injury ([4]; Wild Type line Jack): 100% | % Visual Injury ([4]; Wild Type, mean): 100% | % Visual Injury ([5]; STS ® line 25, glyphosate 8960, tribenuron-methyl 35, rimsulfuron 35 g/ha): 100% | % Visual Injury ([5]; STS ® line 46, glyphosate 8960, tribenuron-methyl 35, rimsulfuron 35 g/ha): 100% | % Visual Injury ([5]; STS ®, mean, glyphosate 8960, tribenuron-methyl 35, rimsulfuron 35 g/ha): 100% | transgenic plants showing no deleterious symptoms [6]: approximately 50% | damage to untransformed control plants [7]: dead | callus growth of embryos ([8]; media containing 1.0 and 2.0 mM glyphosate): very little callus growth | embryos showing callus initiation ([8]; medium with 0.5 mM glyphosate): about half | plants killed [9]: 1 out of 16 | plants killed, percentage in brackets [9]: 12%
